The text below walks through data of patent US20200061155A1, “COMPOSITIONS AND METHODS FOR TREATING LYNX2 DISORDERS” (OPHIDION, INC, priority 2017, published 2020).

The test system of assay [1] is basolateral amygdalar neurons of lynx2KO mice. The assay is described as follows: spike timing dependent plasticity (post-pre stimulation), EPSC amplitude, perforated patch-clamp. The assay is classed as cell-based, mouse. To be noted: 10 μM DHPG for 15 min; lynx2KO neurons (FIG. 8E). In general terms: Patch clamp records ionic current or voltage across a cell membrane.
Description: Spike timing (i.e., Δt in ms) was determined between the onset of the EPSP and the peak of the AP. […] Post-pre stimulation was given tp determine the level of LTD. x-axis is time in minutes, y axis is EPSC amplitude, normalized and presented as a percentage (baseline set to 100). Baseline is EPSC amplitude before post-pre stimulation.
For activation of mGluR receptor with DHPG (FIG. 8E) in a spike-timing dependent paradigm (post-pre stimulation) to elicit LTD. For exploration of the mechanism of anti-Hebbian LTP, mGluR5 agonist DHPG (10 μM, Tocris Bioscience, Bristol, UK) was administered for 15 min when the baseline recorded at least 10 min. […] Baseline is EPSC amplitude before post-pre stimulation.
Pairings were repeated 100 times. Pre-post (spike timings as positive) was set as a 1 EPSP/1 AP pairing (100 repeats at 1 Hz) or post-pre (spike timing as negative) with either 1 AP/1 EPSP pairing (100 repeats at 1 Hz). Spike timing (i.e., Δt in ms) was determined between the onset of the EPSP and the peak of the AP.

For assay [2], the system named is lynx2KO mice. The assay is described as follows: light dark box experiment (latency to enter dark enclosed environment). In kind it is in vivo, mouse. To be noted: lynx2KO mice under chronic stress with mec vs lynx2KO mice without mec (FIG. 2A). An excerpt: FIG. 2A is a graph of the time in seconds (latency) for wild type (WT) (black bars) or lynx2 knock out (KO) (white bars) mice to enter a dark enclosed environment under conditions of saline, chronic stress, or chronic stress with administration of mecamylamine (mec) as indicated, according to embodiments of the present invention.

Assay [3] concerns lynx2KO mice. Description: fear extinction experiment (noise previously paired with electric shock). In kind it is in vivo, mouse. The following applies: lynx2KO mice with mec vs lynx2KO mice without mec (FIGS. 2B-2C). The protocol: FIG. 2B is a graph of fear observed in wild type (black circles) and lynx2KO mice (white triangles) after fear training (an electric shock depicted in yellow) associated with a noise for 24 hours followed by the same noise without the shock to measure the mouse's capability to lose the fear, according to embodiments of the present invention.
FIG. 2C is a graph of fear observed in lynx2KO mice during the fear extinction experiment of FIG. 2B with a group of lynx2KO mice receiving mecamylamine (mec), according to embodiments of the present invention.

The test system of assay [4] is brain slices from lynx2 knockout (KO) mice. The assay is described as follows: long term depression (LTD) of evoked fEPSPs in brain slices after theta pulse stimulation. The assay is classed as cell-based, mouse. The following applies: ACSF with 20 mM methyllycaconitine; lynx2KO slices; theta pulse stimulation (FIG. 4D). The protocol:
FIG. 4D is a graph of stimulating electrode traces from long term depression (LTD) experiments using extracellular recordings for evoked field excitatory post-synaptic potentials (fEPSPs) in […] (EC) brain slices in ACSF solution with […] methyllycaconitine (MLA) from lynx2 knockout (KO) mice before (left of zero minutes) and after (right of zero minutes) theta pulse stimulations (TSP), according to embodiments of the present invention.
Field excitatory postsynaptic potentials (fEPSPs) were evoked by 0.05 Hz test stimulus though a bipolar stimulating electrode placed on external Capsule (EC), and a glass pipette as recording electrode was filled with ACSF and placed in BLA. […] Access resistances were continuously monitored and neurons with more than 20% change of series resistance were excluded from data analysis.
The plasticity ratio was calculated from the average EPSP amplitude of the last 10 mins of baseline recording and the last 15 mins after high frequency or low stimulus, for LTP and LTD studies, respectively. […] For all experiments, treatment effects were analyzed with one-way ANOVA, followed by the appropriate post hoc tests. […]

Turning to `NC(C(=O)O)c1cc(O)cc(O)c1` (stereo not shown) [DHPG, 3,5-dihydroxyphenylglycine], the “synaptic plasticity (EPSC amplitude after post-pre stimulation)” value in assay [1] is given as “restores the abnormal synaptic plasticity in the lynx2KO neurons to normal levels”.

For the molecule `CNC1(C)C2CCC(C2)C1(C)C` (stereo not shown) [mecamylamine], in the assay with lynx2KO mice [2], the latency to dark entry is “increased latency to dark”. Besides, the “ability to unlearn a fear associated with a noise (fear extinction)” value with lynx2KO mice [3] is on record as “increased ability to unlearn a fear associated with a noise”.

For `CCN1C[C@]2(COC(=O)c3ccccc3N3C(=O)C[C@H](C)C3=O)CC[C@H](OC)[C@@]34[C@@H]5C[C@H]6[C@H](OC)[C@@H]5[C@](O)(C[C@@H]6OC)[C@@](O)([C@@H](OC)[C@H]23)[C@@H]14` [methyllycaconitine], the “induced long term depression (LTD) of fEPSPs” value in assay [4] is given as “able to rescue induced long term depression (LTD)”.
